According to patent US5641762A, “Bone targeted inhibitors of carbonic anhydrase” (Research Corporation Technologies, Inc., priority 1994, dated 1997):
Values after ≈ are worked out from the molar mass of the structure shown. Where two headings read alike, the source gives them in different places.

Assays:
[1] = Binding to hydroxyapatite; conditions: for bound to hydroxyapatite: 10^-5 M, 30 minute incubation (FIG. 1)
Description: A--Binding to Hydroxyapatite
For these studies, 10^-5 M aqueous solutions of the various test agents were added to a slurry of hydroxyapatite (HA), the principle mineral constituent of bone. After a 30 minute incubation, HA was separated by centrifugation and treated with 1.0M phosphate buffer (pH=7) or 2.0M phosphate buffer (pH=7). Percentage of total drug bound and eluted was determined using UV-visible spectrophotometry.
1. Binding to hydroxyapatite.

[2] = tested on: rat calvaria (PTH-stimulated calcium release); experiment: In vitro bone organ culture, PTH-stimulated calcium release from calvaria; type: cell-based; conditions: for PTH-stimulated calcium release from calvaria: 10^-5 M (FIG. 3)
Description: Essentially, fetal or neonatal rat calvaria were excised and cultured in serum supplemented BGJb medium (GIBCO) containing HEPES buffer (hydroxyethylpiperazine-ethanesulfonate), penicillin and streptomycin. Bone samples were individually incubated in sterile multi-well plates at 37° C./100% relative humidity/95:5 air:CO2. If appropriate, bone may be radiolabeled by injection of mothers with ^45 CACl2 or pups with tritiated proline.
1. In vitro inhibition of bone resorption. Rat calvaria were cultured as described. Some cultures include the addition of parathyroid hormone (PTH) in the presence and absence of test compounds (10^-5 M).

carbonic anhydrase = experiment: Carbonic anhydrase inhibition (modified micromethod, CO2/bicarbonate colour change time); type: biochemical; conditions: for carbonic anhydrase inhibition: before hydrolysis, final assay concentration 5×10^-6 M (FIG. 2); for Potency as CA inhibitor: relative to acetazolamide = 100, Table 5
Description: B--Carbonic Anhydrase Inhibition
A modification of the micromethod of Maven, J. Pharmacol. Exp. Ther. 130: 26-29 (1960) was used to assess carbonic anhydrase activity and inhibition. In essence, a bicarbonate solution was incubated at 0° C. in a vessel which was constantly bubbled with CO2. A pH indicator (phensulfophthalein) was included. The dependent variable was the amount of time required to achieve color change (addition of bicarbonate is defined as time zero). Addition of carbonic anhydase decreased reaction time. Further addition of enzyme inhibitors extended reaction time back to control values.
All are tested before and after being subjected to hydrolyric conditions with the final assay concentration being 5×10^-6 M. For these experiments, the dependent variable was the amount of time required for acidification of a CO2 /bicarbonate buffer system to a defined endpoint. […] Finally, test drugs were added to enzyme-containing reaction mixtures, and any increase in reaction time was indicative of enzyme inhibition.

[3] = tested on: PTH-induced resorption of bone in culture; conditions: cited from earlier work
[4] = tested on: PTH-induced bone resorption; experiment: In vivo Induced Secondary Hyperparathyroid Rat (ISHR); conditions: for effect on developing hypercalcemia: given 24 hours prior to nephrectomy; for Blood Calcium: i.p. 24 h before nephrectomy, bled 4 h post nephrectomy, control 12.2 ± 0.4, prenephrectomy 10.1 ± 0.3, ** P ≤ 0.05, preliminary
Description: 1. The Induced Secondary Hyperparathyroid Rat
In order to test the biological activity of these substances, test compounds were injected intraperitoneally into 100 gram female rats. Twenty-four hours later the animals were subjected to bilateral nephrectomy. Animals were bled 4 hours post nephrectomy. […] The resulting decline in the concentration of ionized calcium in the blood served as a stimulus for the release of PTH. In animals with functional parathyroid glands, a secondary hyperparathyroidism developed with an ensuing hypercalcemia due to PTH-induced bone resorption. Agents which inhibited bone resorption attenuate this hypercalcemic response.

physchem = conditions: for chromatographic logP: reverse phase hplc lc-18-db, pH 2
Description: Chromatographic characterization was accomplished using hydroxyapetite (HA) chromatography, silica gel thin layer chromatography and high performance reverse phase liquid chromatography (HPLC) with the following characteristics:
Column: LC-18-DB (Supelco)/25 cm/5 um particles.
Mobile phase: 9% tetrahydrofuran/9% CH3 CN/1% CH3 OH/81% 5 mM sodium phosphate, pH=2
Detection: UV-visible absorbance 210-500 nm (photo-diode array scanning)
This mode of analysis served simultaneously as a qualitative analytic procedure (full UV-vis spectrum) as well as providing a quantitative estimate of drug concentration.
Chromatographic data was obtained using the HPLC system described.

[5] = pH 7.6
Solubility pH 7.6 = type: physicochemical
[6] = tested on: response to PTH (plasma calcium); conditions: ISHR without parathyroids; cited from earlier work
[7] = cited from earlier work; for acidosis: systemic / metabolic acidosis
[8] = kidney intact animals; cited from earlier work
[9] = tested on: PTH-induced bone resorption; conditions: literature (Waite et al. 1970); cited from earlier work
[10] = tested on: PTH-stimulated calcium release from bone; experiment: In vivo classical endocrine ablation/replacement model (PTH given to parathyroidectomized rats); parameters: species or system rat; conditions: PTH group
Description: Parathyroid hormone was administered to parathyroidectomized rats who received no food for 12 hours before PTH injection, to minimize gut calcium absorption. In an attempt to attenuate the developing increase in plasma calcium, drug was administered 24 hours prior to PTH injection.
Parathyroid hormone was administered to parathyroidectomized rats who had received no food for 12 hours before PTH injection, to minimize gut calcium absorption.

## CN(C)C1C(=O)C(C(N)=O)=C(O)C2(O)C(=O)C3=C(O)c4c(O)cccc4C(C)(O)C3CC12 (stereo not shown) [tetracycline]
[1]
  bound to hydroxyapatite: 90%
[1]; Table 6
  % Bound to Hydroxyapatite: 85%
[1]; result in words, sodium phosphate buffer, pH 7
  binding to / elution from hydroxyapatite: eluted with 1.0M sodium phosphate
[2]
  PTH-stimulated calcium release from calvaria: without effect
Carbonic anhydrase
  carbonic anhydrase inhibition: without effect
[3]; at high concentrations
  inhibition of PTH in vitro: typically inhibits PTH in vitro
[4]
  effect on developing hypercalcemia: does not appear to be effective
  Blood Calcium: 11.8 ± 0.4 mg/dL

## NS(=O)(=O)c1nnc(NC(=O)CCC(=O)NCCCCCC(O)(P(=O)(O)O)P(=O)(O)O)s1 [PAA]
Carbonic anhydrase; read-out: KI as carbonic anhydrase inhibitor
  Ki: 120 nM
physchem
  water solubility relative to parent thiadiazolesulfonamide: more water soluble than the parent thiadiazolesulfonamide

## Nc1nnc(S(N)(=O)=O)s1 [WP-061786, 2-amino-1,3,4-thiadiazole-5-sulfonamide]
[1]
  % Bound to Hydroxyapatite: 0%
[5]
  ether:buffer partition coefficient: 0.15
Carbonic anhydrase
  Potency as CA inhibitor: 20%
Solubility pH 7.6
  solubility: 28.4 mM (≈ 5120 µg/mL)
physchem
  chromatographic logP: -0.409

## CC(=O)Nc1nnc(S(N)(=O)=O)s1 [acetazolamide]
[1]
  bound to hydroxyapatite: 19%
[6]
  inhibition of response to administered PTH: abolish it
[7]; normal animals
  change in plasma calcium concentration: no change in plasma calcium concentration is observed
[7]
  acidosis: causes a systemic acidosis
[7]; listed as Acetazolamide
  acidosis: produces a metabolic acidosis
[2]
  PTH-stimulated calcium release from calvaria: inhibited
Carbonic anhydrase
  carbonic anhydrase inhibition: inhibits carbonic anhydrase activity
  Potency as CA inhibitor: 100%
[3]; tissue culture (Minkin and Jennings)
  inhibition of PTH-induced resorption: inhibition of PTH-induced resorption
[8]
  half-life: approximately 50 minutes
[4]; 0.2 mol/kg as printed
  Blood Calcium: 12.6 ± 0.2 mg/dL
[4]
  effect on developing hypercalcemia: not effective
Solubility pH 7.6
  solubility: 6.7 mM (≈ 1490 µg/mL)
[9]
  inhibition of the increase in total plasma calcium in ISHR: completely inhibits this response

## CCOC(=O)CCCCC(=O)NS(=O)(=O)c1nnc(NC(C)=O)s1 [AAOEt, acetazolamide-adipate-ethyl ester]
[1]
  bound to hydroxyapatite: 3%
Carbonic anhydrase; following incubation under hydrolytic conditions, 5×10^-6 M (FIG. 2)
  carbonic anhydrase inhibition after hydrolytic conditions: inhibited carbonic anhydrase activity
physchem; HPLC
  lipophilicity relative to parent compounds: more lipophilic than is its parent, acetazolamide
physchem
  chromatographic logP: 0.238

## CN(C)C1C(=O)C(C(N)=O)=C(O)C2(O)C(=O)C3=C(O)c4c(OC(CO)COC(=O)Oc5ccc6nc(S(N)(=O)=O)sc6c5)cccc4C(C)(O)C3CC12 (stereo not shown) [TAE-2]
[2]; calvaria in culture (FIGS. 8-10)
  PTH-stimulated bone resorption / calcium release: attenuates PTH stimulated calcium release from calvaria in culture (FIG. 9) in a concentration dependent fashion

B1: PTH: parathyroid hormone (protein, UniProt P01270 32-115, looked up)
Parathyroid hormone: SVSEIQLMHNLGKHLNSMERVEWLRKKLQDVHNFVALGAPLAPRDAGSQRPRKKEDNVLVESHEKSLGEADKADVNVLTKAKSQ
modifications: Parathyroid hormone
[2]; treatment with PTH
  net release of calcium from cultured bone: significant stimulation
[10]
  Blood Calcium, Before PTH: 5.2 ± 0.3 mg/dL
[10]; control 5.5 ± 0.2, ** p < 0.05 vs control
  Blood Calcium, 6 hours post-treatment: 7.2 ± 0.2 mg/dL
